According to article PMC6260619, “Selective Cytotoxicity of Goniothalamin against Hepatoblastoma HepG2 Cells” (Molecules, 2011):
pIC50: −log10 of the molar value. Read-outs that look alike come from different tables or passages of the source.

How the values were obtained:
Format in all cases: cell-based, human
HepG2 cells [1] = test: MTT cytotoxicity assay, HepG2; settings: Homo sapiens, read-out: IC50 from MTT
Experimental: (§1) HepG2 and Chang cells were plated at 1 × 10^4 cells/well by adding 200 μL of a 5 × 10^4 cells/mL suspension to each well of a 96-well tissue culture plate. The plate was incubated for a sufficient time to assure attachment and 40% to 60% confluency. […] The last row was left as an untreated control. The plates were incubated at 37 °C, 5% CO2, for 24, 48 and 72 hours, respectively. After incubation with compounds, the media was aspirated off and replaced with fresh media. Then, MTT solution (20 μL) for a total volume of 200 μL was added in every well and incubated for 4 to 6 hours at 37 °C with 5% CO2. After that, MTT-containing medium was removed gently and replaced with DMSO (200 μL per well) to mix the formazan crystals until dissolved. The plates were read on microtiter plate reader at 570 nm. For each compound tested, the IC50 (concentration of drug needed to inhibit cell growth by 50%) is generated from the dose-response curves for each cell line.

Chang cells [2] = test: MTT cytotoxicity assay, Chang; settings: Homo sapiens, read-out: IC50 from MTT
Experimental: as §1

HepG2 cells [3] = test: Cell cycle PI analysis by flow cytometry, HepG2
Experimental: The ability of a substance to affect specific phases of the cell cycle may provide clues as to its mechanism(s) of action. To determine the effects of goniothalamin on the cell cycle, HepG2 cells were treated with IC50 levels of goniothalamin (determined from the MTT assay) for 24, 48 and 72 hours, respectively. The cells were stained with PI and the DNA contents analyzed by flow cytometry.
(§2) The treated cells were trypsinized and washed with PBS. After centrifugation, the supernatant was removed. Then, 1 × 10^6 cells were harvested and fixed in ice-cold ethanol (70%). The fixed cells were centrifuged at high speed (180 × g) for 10 minutes to adequately pellet down the cells that were suspended in the ethanol. The pellet was washed by the ice-cold PBS and then centrifuged again at 180 × g for 10 minutes. The final pellet was resuspended with 1 mL of RNase and incubated at 37 °C for 30 minutes. At the end of incubation, DNA binding dye PI (1 mg/mL) was added to give a final concentration of 50 µg/mL. The mixture was incubated at room temperature for 10 min in the dark. Data acquisition and analysis were performed in by flow cytometry FACS Calibur flow cytometer (Becton Dickinson, Franklin Lakes, NJ, USA) using CellQuest 3.3 software.

Chang cells [4] = test: Cell cycle PI analysis by flow cytometry, Chang
Experimental: The effect of goniothalamin on the cell cycle distribution of non-malignant Chang cells was also assessed. […] Accordingly, goniothalamin induced a marked apoptosis in a time-dependent manner at IC50 concentrations. As expected, the increase in the apoptotic population was associated with a concomitant enlargement of the pre-phase population, as observed in cell cycle analysis.
as §2

[5] = HepG2, 24h, at IC50 (goniothalamin 9.2 µM; doxorubicin 2.2 µM)
[6] = HepG2, 48h, at IC50 (goniothalamin 8.3 µM; doxorubicin 4.3 µM)
[7] = HepG2, 72h, at IC50 (goniothalamin 4.6 µM; doxorubicin […])
[8] = 24h, at IC50 (goniothalamin 79.10 µM; doxorubicin 0.83 µM)
[9] = 48h, at IC50 (goniothalamin 63.75 µM; doxorubicin 0.41 µM)
[10] = 72h, at IC50 (goniothalamin 35.01 µM; doxorubicin 0.28 µM)

COc1cccc2c1C(=O)c1c(O)c3c(c(O)c1C2=O)C[C@@](O)(C(=O)CO)C[C@@H]3O[C@H]1C[C@H](N)[C@H](O)[C@H](C)O1 [Doxorubicin, reference compound]
pIC50 (HepG2 cells [1]; HepG2, 24 h): 5.66 | pIC50 (HepG2 cells [1]; HepG2, 48 h): 5.37 | pIC50 (HepG2 cells [1]; HepG2, 72 h): 5.97 | pIC50 (Chang cells [2]; 24 h): 6.08 | pIC50 (Chang cells [2]; 48 h): 6.39 | pIC50 (Chang cells [2]; 72 h): 6.55 | G0/G1 (HepG2 cells [3]; [5]): 76.46 ± 3.80% | G2+M (HepG2 cells [3]; [5]): 11.64 ± 3.02% | S (HepG2 cells [3]; [5]): 8.54 ± 0.38% | SubG0/G1 (HepG2 cells [3]; [5]): 3.36 ± 1.02% | G0/G1 (HepG2 cells [3]; [6]): 65.17 ± 12.80% | S (HepG2 cells [3]; [6]): 15.15 ± 10.96% | SubG0/G1 (HepG2 cells [3]; [6]): 5.14 ± 2.53% | G0/G1 (HepG2 cells [3]; [7]): 60.64 ± 0.79% | G2+M (HepG2 cells [3]; [7]): 2.66 ± 0.37% | S (HepG2 cells [3]; [7]): 5.91 ± 0.15% | SubG0/G1 (HepG2 cells [3]; [7]): 30.79 ± 0.57% | G0/G1 (Chang cells [4]; [8]): 50.84 ± 6.03% | G2+M (Chang cells [4]; [8]): 16.36 ± 1.28% | S (Chang cells [4]; [8]): 22.09 ± 0.03% | SubG0/G1 (Chang cells [4]; [8]): 10.71 ± 7.28% | G0/G1 (Chang cells [4]; [9]): 62.43 ± 9.80% | G2+M (Chang cells [4]; [9]): 10.37 ± 0.21% | S (Chang cells [4]; [9]): 15.31 ± 3.10% | SubG0/G1 (Chang cells [4]; [9]): 11.89 ± 6.49% | G0/G1 (Chang cells [4]; [10]): 54.12 ± 1.52% | G2+M (Chang cells [4]; [10]): 8.63 ± 2.17% | S (Chang cells [4]; [10]): 15.19 ± 2.83% | SubG0/G1 (Chang cells [4]; [10]): 22.06 ± 5.17%
